The text below walks through data of patent US8524755B2 (priority 2009, dated 2013).

Assay [1] has as its target T1, tyrosine hydroxylase (Rattus norvegicus, UniProt P04177).
T1 construct: rat striatum; from tissue; host or cells: rat striatum
Briefly: Enzyme assay tyrosine hydroxylase. Type of assay: biochemical. Particulars: read-out: % Inhibition of Control Values @ 10 μM. An excerpt:
(§1) The enzyme assays provided below will be familiar to those skilled in the art.
(§2) Analysis and Expression of Results: The results are expressed as a percent of control specific activity ((measured specific activity/control specific activity)×100) obtained in the presence of the test compounds.

In assay [2] the target is T2, Angiotensin AT2 (h) (Homo sapiens, UniProt P50052).
T2 construct: expressed in transfected cells; host or cells: CHO cells
T2 sequence (P50052 1-363): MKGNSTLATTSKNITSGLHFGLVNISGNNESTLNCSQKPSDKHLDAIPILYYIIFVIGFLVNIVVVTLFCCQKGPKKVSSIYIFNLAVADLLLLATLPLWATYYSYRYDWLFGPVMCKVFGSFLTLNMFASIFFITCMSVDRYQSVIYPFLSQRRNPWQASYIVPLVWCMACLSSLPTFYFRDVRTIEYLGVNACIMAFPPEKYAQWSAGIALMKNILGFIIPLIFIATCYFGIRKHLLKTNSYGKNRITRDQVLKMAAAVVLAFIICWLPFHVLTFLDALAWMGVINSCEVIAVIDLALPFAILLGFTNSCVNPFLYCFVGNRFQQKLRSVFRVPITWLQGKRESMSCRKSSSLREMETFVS
In words: Binding AT2 (h). The following applies: AT2 (h) (aa), read-out: % Inhibition of Control Specific Binding @ 10 μM. On the procedure:
(§3) Radioligand binding assay methods utilized to measure the activity of compounds of the invention will be familiar to those skilled in the art. In each assay case, the assay components such as, for example, the cell-type, ligand, reference compound and the like, will be familiar to practitioners of such an assay.
(§4) Analysis and Expression of Results: Compounds of the invention were tested in the biochemical assays and percent inhibition of specific binding was determined. The specific ligand binding to the receptors is defined as the difference between the total binding and the nonspecific binding determined in the presence of an excess of unlabelled ligand. The results are expressed as a percent inhibition of control specific binding (100−((measured specific binding/control specific binding)×100)) obtained in the presence of test compounds.

Assay [3] concerns the target T3, norepinephrine transporter (h) (Homo sapiens, UniProt P23975).
T3 construct: expressed in transfected cells; host or cells: CHO cells
In words: Binding norepinephrine transporter (h) (aa). The following applies: read-out: % Inhibition of Control Specific Binding @ 10 μM. On the procedure: as §3, §4

Assay [4] has as its target T4, PKCα (h) (Homo sapiens, UniProt P17252).
T4 construct: host or cells: insect cells
Briefly: Enzyme assay PKCα (h). Type of assay: biochemical. Particulars: read-out: % Inhibition of Control Values @ 10 μM.
Source text: as §1, §2

Assay [5] concerns the target T5, MAO-A (h) (Homo sapiens, UniProt P21397).
T5 construct: human placenta; from tissue; host or cells: human placenta
T5 sequence (P21397 1-527): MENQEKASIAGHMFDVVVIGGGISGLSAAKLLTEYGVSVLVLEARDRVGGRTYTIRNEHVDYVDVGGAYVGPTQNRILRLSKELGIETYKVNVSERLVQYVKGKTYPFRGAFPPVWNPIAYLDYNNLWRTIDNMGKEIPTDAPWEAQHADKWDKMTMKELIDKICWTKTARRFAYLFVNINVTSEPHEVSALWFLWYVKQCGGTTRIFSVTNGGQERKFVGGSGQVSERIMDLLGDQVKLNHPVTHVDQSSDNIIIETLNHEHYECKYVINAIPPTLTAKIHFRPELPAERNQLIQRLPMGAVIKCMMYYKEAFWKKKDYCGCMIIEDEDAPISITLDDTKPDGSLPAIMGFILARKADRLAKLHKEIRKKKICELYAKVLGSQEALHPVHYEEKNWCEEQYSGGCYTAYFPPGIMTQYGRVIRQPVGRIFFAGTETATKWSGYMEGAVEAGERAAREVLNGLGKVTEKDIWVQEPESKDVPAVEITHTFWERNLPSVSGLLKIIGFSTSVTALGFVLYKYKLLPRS
In words: Enzyme assay MAO-A (h). Format: biochemical. Particulars: read-out: % Inhibition of Control Values @ 10 μM.
Source text: as §1, §2

The test system of assay [6] is opioid (ns). Briefly: Binding opioid (ns) (aa). Further details: species or system rat. As to the method:
as §3, §4

The subject of assay [7] is NMDA. Briefly: Binding NMDA (aa). Set-up: species or system rat. On the procedure:
as §3, §4

Each structure is given as a SMILES string.

T3 sequence (P23975 whole entry): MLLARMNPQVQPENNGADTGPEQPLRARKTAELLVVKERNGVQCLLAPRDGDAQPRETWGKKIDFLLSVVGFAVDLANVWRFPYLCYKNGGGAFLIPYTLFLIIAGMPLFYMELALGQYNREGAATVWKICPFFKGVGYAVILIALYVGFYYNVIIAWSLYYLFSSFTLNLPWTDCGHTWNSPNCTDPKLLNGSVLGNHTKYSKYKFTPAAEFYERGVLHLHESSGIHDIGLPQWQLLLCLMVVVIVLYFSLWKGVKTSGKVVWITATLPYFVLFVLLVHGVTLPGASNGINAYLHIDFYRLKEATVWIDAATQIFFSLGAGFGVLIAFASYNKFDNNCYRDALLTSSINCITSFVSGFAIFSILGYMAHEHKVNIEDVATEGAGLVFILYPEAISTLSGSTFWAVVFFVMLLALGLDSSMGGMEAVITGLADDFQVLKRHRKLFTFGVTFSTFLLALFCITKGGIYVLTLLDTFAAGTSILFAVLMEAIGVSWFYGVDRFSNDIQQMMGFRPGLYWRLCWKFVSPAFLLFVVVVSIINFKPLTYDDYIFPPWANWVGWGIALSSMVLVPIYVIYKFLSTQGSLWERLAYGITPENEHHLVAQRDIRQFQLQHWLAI
T1 sequence (P04177 whole entry): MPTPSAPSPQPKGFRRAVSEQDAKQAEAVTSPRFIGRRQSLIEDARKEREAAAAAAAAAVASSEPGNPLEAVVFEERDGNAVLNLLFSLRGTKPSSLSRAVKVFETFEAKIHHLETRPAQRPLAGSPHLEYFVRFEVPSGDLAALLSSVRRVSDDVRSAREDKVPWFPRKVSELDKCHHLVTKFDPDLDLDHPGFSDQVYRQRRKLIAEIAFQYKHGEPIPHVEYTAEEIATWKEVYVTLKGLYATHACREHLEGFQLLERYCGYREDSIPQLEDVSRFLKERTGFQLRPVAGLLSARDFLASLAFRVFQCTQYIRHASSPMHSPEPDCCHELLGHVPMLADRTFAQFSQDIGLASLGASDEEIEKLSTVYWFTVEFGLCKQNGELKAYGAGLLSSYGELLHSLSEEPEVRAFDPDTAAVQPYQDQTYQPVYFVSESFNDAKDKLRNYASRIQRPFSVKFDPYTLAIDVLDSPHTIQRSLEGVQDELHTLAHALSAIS

As usually defined, the inhibition is the drop in the measured response relative to a control, in per cent. On to `CC1(C)C(=O)N(c2ccc(C#N)c(C(F)(F)F)c2)C(=S)N1c1ccc(C(=O)O)c(F)c1` [(MI), 4-(3-(4-cyano-3-(trifluoromethyl)phenyl)-5,5-dimethyl-4-oxo-2-thioxoimidazolidin-1-yl)-2-fluorobenzoic acid], for which the inhibition at 10 µM was -4% in assay [1]; -1% in assay [2]; 56% in assay [3]; 4% in assay [4]; -5% in assay [5]. In addition, the entries for the “% Inhibition of Control Specific Binding @ 10 μM” value (from here on “% Inhibition”) in assay [6] and in assay [7] were −6% and 2%, respectively.
`CC1(C)C(=O)N(c2ccc(C#N)c(C(F)(F)F)c2)C(=S)N1c1ccc(C(N)=O)c(F)c1` [(MII), 4-(3-(4-Cyano-3-(trifluoromethyl)phenyl)-5,5-dimethyl-4-oxo-2-thioxoimidazolidin-1-yl)-2-fluorobenzamide]: the inhibition at 10 µM was 2% in assay [1]; -6% in assay [2]; -13% in assay [3]; 6% in assay [4]; 0% in assay [5]. The “% Inhibition” value in assay [6] is recorded as −14%; in assay [7] it was 5%.
As to `CC1(C)C(=O)N(c2ccc(C#N)c(C(F)(F)F)c2)C(=O)N1c1ccc(C(N)=O)c(F)c1` [(MIII), 4-(3-(4-cyano-3-(trifluoromethyl)phenyl)-5,5-dimethyl-2,4-dioxoimidazolidin-1-yl)-2-fluorobenzamide], the inhibition at 10 µM was -2% in assay [1]; -2% in assay [2]; 9% in assay [3]; 3% in assay [4]; 14% in assay [5]. Also, the “% Inhibition” value in assay [6] is recorded as −15%; in assay [7] it was 0%.
For the compound `CNC(=O)c1ccc(N2C(=O)N(c3ccc(C#N)c(C(F)(F)F)c3)C(=O)C2(C)C)cc1F` [(MIV), 4-(3-(4-cyano-3-(trifluoromethyl)phenyl)-5,5-dimethyl-2,4-dioxoimidazolidin-1-yl)-2-fluoro-N-methylbenzamide], the inhibition at 10 µM in assay [1] is -2%; in assay [2], 1%; in assay [3], 20%; in assay [4], 5%; in assay [5], 11%. Moreover, the “% Inhibition” value is given as −10% in assay [6] and −41% in assay [7].
